Laboratory results taken from article PMC6364417, “Kinase inhibitor library screening identifies synergistic drug combinations effective in sensitive and resistant melanoma cells” (Journal of Experimental & Clinical Cancer Research : CR, 2019).

What was measured:
Test in all cases: Kinase inhibitor library screening, PrestoBlue cell viability, 1 or 10 μM, 72 h
[1] = system: A375-GP cells (Dabrafenib-resistant)
A375 cells (parental) = system: A375 cells (parental)
[2] = system: 501Mel-GP cells (Dabrafenib-resistant)
[3] = system: IGR37-XP cells (Vemurafenib-resistant)
IGR37 cells (parental) = system: IGR37 cells (parental)
501Mel cells (parental) = system: 501Mel cells (parental)
Outline: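 Two concentrations of every kinase inhibitor were tested on each melanoma line and its resistant counterparts, and cell survival was quantified by PrestoBlue against untreated wells.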

[4] = system: 501Mel-XP cells (Vemurafenib-resistant)
[5] = system: A375-XP cells (Vemurafenib-resistant)
[6] = system: IGR37-GP cells (Dabrafenib-resistant)
[7] = A375 Parental, 10μΜ, 72 h, in %
[8] = IGR37 Parental, 1μΜ, 72 h, in %
[9] = 501Mel Parental, 1μΜ, 72 h, in %
[10] = 501Mel Parental, 10μΜ, 72 h, in %
[11] = IGR37 Parental, 10μΜ, 72 h, in %

## N#C/C(=C\c1ccc(O)c(O)c1)C(=O)NCc1ccccc1 [AG-490]
[1]; A375 GP, 10μΜ, 72 h, in %
  cell viability, A375 GP, 10μΜ: 88.5
A375 cells (parental); [7]
  cell viability, A375 Parental, 10μΜ: 88.6
[2]; 501Mel GP, 1μΜ, 72 h, in %
  cell viability, 501Mel GP, 1μΜ: 105.8
[2]; 501Mel GP, 10μΜ, 72 h, in %
  cell viability, 501Mel GP, 10μΜ: 86.5
[3]; IGR37 XP, 10μΜ, 72 h
  cell viability, IGR37 XP, 10μΜ: 70.7%
[3]; IGR37 XP, 1μΜ, 72 h, in %
  cell viability, IGR37 XP, 1μΜ: 104.5
IGR37 cells (parental); [8]
  cell viability, IGR37 Parental, 1μΜ: 105.9
501Mel cells (parental); [9]
  cell viability, 501Mel Parental, 1μΜ: 99.1
501Mel cells (parental); [10]
  cell viability, 501Mel Parental, 10μΜ: 92.7
[4]; 501Mel XP, 1μΜ, 72 h, in %
  cell viability, 501Mel XP, 1μΜ: 93.1
[4]; 501Mel XP, 10μΜ, 72 h, in %
  cell viability, 501Mel XP, 10μΜ: 79.3
[5]; A375 XP, 1μΜ, 72 h, in %
  cell viability, A375 XP, 1μΜ: 99.9
[5]; A375 XP, 10μΜ, 72 h, in %
  cell viability, A375 XP, 10μΜ: 91.1
[6]; IGR37 GP, 10μΜ, 72 h
  cell viability, IGR37 GP, 10μΜ: 88.3%

## Oc1cc(O)cc(/C=C/c2ccc(O)c(O)c2)c1 [Piceatannol]
[1]; A375 GP, 1μΜ, in %
  cell viability (kinase inhibitor library screening): 93.0
[1]; A375 GP, 10μΜ, in %
  cell viability (kinase inhibitor library screening): 80.7
A375 cells (parental); A375 Parental, 1μΜ, in %
  cell viability (kinase inhibitor library screening): 98.9
A375 cells (parental); A375 Parental, 10μΜ, in %
  cell viability (kinase inhibitor library screening): 76.1
[2]; 501Mel GP, 1μΜ, in %
  cell viability (kinase inhibitor library screening): 95.8
[2]; 501Mel GP, 10μΜ, in %
  cell viability (kinase inhibitor library screening): 80.4
[3]; IGR37 XP, 1μΜ, in %
  cell viability (kinase inhibitor library screening): 92.0
[3]; IGR37 XP, 10μΜ, in %
  cell viability (kinase inhibitor library screening): 82.4
IGR37 cells (parental); IGR37 Parental, 1μΜ, in %
  cell viability (kinase inhibitor library screening): 98.6
IGR37 cells (parental); IGR37 Parental, 10μΜ, in %
  cell viability (kinase inhibitor library screening): 86.6
501Mel cells (parental); 501Mel Parental, 1μΜ, in %
  cell viability (kinase inhibitor library screening): 98.4
501Mel cells (parental); 501Mel Parental, 10μΜ, in %
  cell viability (kinase inhibitor library screening): 84.8
[4]; 501Mel XP, 1μΜ, in %
  cell viability (kinase inhibitor library screening): 96.8
[4]; 501Mel XP, 10μΜ, in %
  cell viability (kinase inhibitor library screening): 81.1
[5]; A375 XP, 1μΜ, in %
  cell viability (kinase inhibitor library screening): 98.5
[5]; A375 XP, 10μΜ, in %
  cell viability (kinase inhibitor library screening): 89.0
[6]; IGR37 GP, 1μΜ, in %
  cell viability (kinase inhibitor library screening): 91.5
[6]; IGR37 GP, 10μΜ, in %
  cell viability (kinase inhibitor library screening): 85.8

## Cc1cc(CN2CCN(c3c(Br)cnc4nc(-c5ccc(N6CCN(C)CC6)cc5)[nH]c34)CC2)no1 [CCT137690]
[1]; A375 GP, 1μΜ, 72 h
  cell viability (kinase inhibitor library screening): 56.6%
[1]; A375 GP, 10μΜ, 72 h
  cell viability (kinase inhibitor library screening): 0.6%
A375 cells (parental); A375 Parental, 10μΜ, 72 h
  cell viability (kinase inhibitor library screening): 1.0%
A375 cells (parental); A375 Parental, 1μΜ, 72 h
  cell viability (kinase inhibitor library screening): 56.7%
[2]; 501Mel GP, 1μΜ, 72 h
  cell viability (kinase inhibitor library screening): 95.4%
[2]; 501Mel GP, 10μΜ, 72 h
  cell viability (kinase inhibitor library screening): -0.454%
[3]; IGR37 XP, 1μΜ, 72 h
  cell viability (kinase inhibitor library screening): 93.1%
[3]; IGR37 XP, 10μΜ, 72 h
  cell viability (kinase inhibitor library screening): 0.741%
IGR37 cells (parental); IGR37 Parental, 1μΜ, 72 h
  cell viability (kinase inhibitor library screening): 91.0%
IGR37 cells (parental); IGR37 Parental, 10μΜ, 72 h
  cell viability (kinase inhibitor library screening): 0.571%
501Mel cells (parental); 501Mel Parental, 1μΜ, 72 h
  cell viability (kinase inhibitor library screening): 87.2%
501Mel cells (parental); 501Mel Parental, 10μΜ, 72 h
  cell viability (kinase inhibitor library screening): 0.283%
[4]; 501Mel XP, 1μΜ, 72 h
  cell viability (kinase inhibitor library screening): 76.9%
[4]; 501Mel XP, 10μΜ, 72 h
  cell viability (kinase inhibitor library screening): -0.565%
[5]; A375 XP, 10μΜ, 72 h
  cell viability (kinase inhibitor library screening): 0.9%
[6]; IGR37 GP, 1μΜ, 72 h
  cell viability (kinase inhibitor library screening): 88.6%
[6]; IGR37 GP, 10μΜ, 72 h
  cell viability (kinase inhibitor library screening): 1.7%

## C=CC(=O)Nc1ccc2ncnc(Nc3ccc(OCc4cccc(F)c4)c(Cl)c3)c2c1 [AST-1306]
[1]; Homo sapiens, A-375, 72 h, read-out: cell viability, A375 GP, 1μΜ
  viability at 1 µM: 85.4%
[1]; Homo sapiens, A-375, 72 h, read-out: cell viability, A375 GP, 10μΜ
  viability at 10 µM: 0.6%
A375 cells (parental); Homo sapiens, A-375, 72 h, read-out: cell viability, A375 Parental, 1μΜ
  viability at 1 µM: 95%
A375 cells (parental); Homo sapiens, A-375, 72 h, read-out: cell viability, A375 Parental, 10μΜ
  viability at 10 µM: 2.9%
[2]; Homo sapiens, 72 h, read-out: cell viability, 501Mel GP, 1μΜ
  viability at 1 µM: 103%
[2]; Homo sapiens, 72 h, read-out: cell viability, 501Mel GP, 10μΜ
  viability at 10 µM: 2.3%
[3]; Homo sapiens, IGR-37, 72 h, read-out: cell viability, IGR37 XP, 1μΜ
  viability at 1 µM: 72.8%
[3]; Homo sapiens, IGR-37, 72 h, read-out: cell viability, IGR37 XP, 10μΜ
  viability at 10 µM: 1.1%
IGR37 cells (parental); Homo sapiens, IGR-37, 72 h, read-out: cell viability, IGR37 Parental, 1μΜ
  viability at 1 µM: 99.8%
IGR37 cells (parental); Homo sapiens, IGR-37, 72 h, read-out: cell viability, IGR37 Parental, 10μΜ
  viability at 10 µM: 1.8%
501Mel cells (parental); Homo sapiens, 72 h, read-out: cell viability, 501Mel Parental, 1μΜ
  viability at 1 µM: 94.1%
501Mel cells (parental); Homo sapiens, 72 h, read-out: cell viability, 501Mel Parental, 10μΜ
  viability at 10 µM: 3%
[4]; Homo sapiens, 72 h, read-out: cell viability, 501Mel XP, 1μΜ
  viability at 1 µM: 89.2%
[4]; Homo sapiens, 72 h, read-out: cell viability, 501Mel XP, 10μΜ
  viability at 10 µM: -0.162%
[5]; Homo sapiens, A-375, 72 h, read-out: cell viability, A375 XP, 1μΜ
  viability at 1 µM: 90.9%
[5]; Homo sapiens, A-375, 72 h, read-out: cell viability, A375 XP, 10μΜ
  viability at 10 µM: 0.8%
[6]; Homo sapiens, IGR-37, 72 h, read-out: cell viability, IGR37 GP, 1μΜ
  viability at 1 µM: 87.4%
[6]; Homo sapiens, IGR-37, 72 h, read-out: cell viability, IGR37 GP, 10μΜ
  viability at 10 µM: 2.2%

## Cc1c(CN2CCN(C(=O)[C@H](C)O)CC2)sc2c(N3CCOCC3)nc(-c3cnc(N)nc3)nc12 [GDC-0980 (RG7422)]
[1]; A375 GP, 1μΜ, 72 h
  Cell viability in kinase inhibitor library screening, A375 GP, 1μΜ: 33.1
[1]; A375 GP, 10μΜ, 72 h
  Cell viability in kinase inhibitor library screening, A375 GP, 10μΜ: 4.0
A375 cells (parental); A375 Parental, 10μΜ, 72 h
  Cell viability in kinase inhibitor library screening, A375 Parental, 10μΜ: 2.2
A375 cells (parental); A375 Parental, 1μΜ, 72 h
  Cell viability in kinase inhibitor library screening, A375 Parental, 1μΜ: 22.3
[2]; 501Mel GP, 1μΜ, 72 h, in %
  Cell viability in kinase inhibitor library screening, 501Mel GP, 1μΜ: 21.4
[2]; 501Mel GP, 10μΜ, 72 h, in %
  Cell viability in kinase inhibitor library screening, 501Mel GP, 10μΜ: 5.1
[3]; IGR37 XP, 10μΜ, 72 h
  Cell viability in kinase inhibitor library screening, IGR37 XP, 10μΜ: 1.5%
[3]; IGR37 XP, 1μΜ, 72 h, in %
  Cell viability in kinase inhibitor library screening, IGR37 XP, 1μΜ: 21.6
IGR37 cells (parental); [8]
  Cell viability in kinase inhibitor library screening, IGR37 Parental, 1μΜ: 35.3
IGR37 cells (parental); [11]
  Cell viability in kinase inhibitor library screening, IGR37 Parental, 10μΜ: 2.0
501Mel cells (parental); [9]
  Cell viability in kinase inhibitor library screening, 501Mel Parental, 1μΜ: 19.3
501Mel cells (parental); [10]
  Cell viability in kinase inhibitor library screening, 501Mel Parental, 10μΜ: 1.0
[4]; 501Mel XP, 1μΜ, 72 h, in %
  Cell viability in kinase inhibitor library screening, 501Mel XP, 1μΜ: 15.9
[4]; 501Mel XP, 10μΜ, 72 h, in %
  Cell viability in kinase inhibitor library screening, 501Mel XP, 10μΜ: 0.8
[5]; A375 XP, 1μΜ, 72 h
  Cell viability in kinase inhibitor library screening, A375 XP, 1μΜ: 31.2
[5]; A375 XP, 10μΜ, 72 h
  Cell viability in kinase inhibitor library screening, A375 XP, 10μΜ: 3.3
[6]; IGR37 GP, 10μΜ, 72 h
  Cell viability in kinase inhibitor library screening, IGR37 GP, 10μΜ: 2.9%
[6]; IGR37 GP, 1μΜ, 72 h, in %
  Cell viability in kinase inhibitor library screening, IGR37 GP, 1μΜ: 58.6

## CCOc1cc2ncc(C#N)c(Nc3ccc(OCc4ccccn4)c(Cl)c3)c2cc1NC(=O)/C=C/CN(C)C [Neratinib (HKI-272)]
[1]; A375 GP, 1μΜ, 72 h, in %
  cell viability, A375 GP, 1μΜ: 93.4
[1]; A375 GP, 10μΜ, 72 h, in %
  cell viability, A375 GP, 10μΜ: 4.2
A375 cells (parental); A375 Parental, 1μΜ, 72 h, in %
  cell viability, A375 Parental, 1μΜ: 97.5
A375 cells (parental); [7]
  cell viability, A375 Parental, 10μΜ: 29.0
[2]; 501Mel GP, 1μΜ, 72 h, in %
  cell viability, 501Mel GP, 1μΜ: 103.4
[2]; 501Mel GP, 10μΜ, 72 h, in %
  cell viability, 501Mel GP, 10μΜ: 64.1
[3]; IGR37 XP, 10μΜ, 72 h
  cell viability, IGR37 XP, 10μΜ: 9.6%
[3]; IGR37 XP, 1μΜ, 72 h, in %
  cell viability, IGR37 XP, 1μΜ: 75.0
IGR37 cells (parental); [8]
  cell viability, IGR37 Parental, 1μΜ: 96.7
IGR37 cells (parental); [11]
  cell viability, IGR37 Parental, 10μΜ: 66.7
501Mel cells (parental); [9]
  cell viability, 501Mel Parental, 1μΜ: 96.7
501Mel cells (parental); [10]
  cell viability, 501Mel Parental, 10μΜ: 54.8
[4]; 501Mel XP, 1μΜ, 72 h, in %
  cell viability, 501Mel XP, 1μΜ: 85.2
[4]; 501Mel XP, 10μΜ, 72 h, in %
  cell viability, 501Mel XP, 10μΜ: 0.0171
[5]; A375 XP, 1μΜ, 72 h, in %
  cell viability, A375 XP, 1μΜ: 89.5
[5]; A375 XP, 10μΜ, 72 h, in %
  cell viability, A375 XP, 10μΜ: 10.7
[6]; IGR37 GP, 10μΜ, 72 h
  cell viability, IGR37 GP, 10μΜ: 21.6%
[6]; IGR37 GP, 1μΜ, 72 h, in %
  cell viability, IGR37 GP, 1μΜ: 81.2
